{
  "source": "patent US20220088195A1",
  "about": "“Prevention or mitigation of T-cell bispecific antibody-related adverse effects” (Hoffmann-La Roche Inc., priority 2020, published 2022)",
  "key": {"[1]": {"tested_on": "IFN-γ, IL-2 and TNF-α release", "assay": "Cytokine release after second stimulation with HLA-A2 WT-1-TCB in the SKM-1 assay (Luminex)", "type": "cell-based, human", "details": "100 nM dasatinib, versus positive control ON/ON", "description": "FIG. 12. Cytokine release after the second stimulation with HLA-A2 WT-1-TCB with and without dasatinib. Supernatants from the killing assay of FIG. 8 were collected 24 hours after the second stimulation and IFN-γ (A), TNF-α (B) and IL-2 (C) were measured with a multiplex cytokine kit (Luminex technology). n=3 donors.\nTo assess whether dasatinib can efficiently prevent TCB-mediated target cell killing by activated T cells, we set up an in vitro killing assay with two stimulation steps, mimicking an ON/OFF switch. During the first stimulation, PBMCs were activated on carboxyfluorescein succinimidyl ester (CFSE)-labelled SKM-1 tumors cells with HLA-A2 WT-1-TCB in the absence of dasatinib (ON). During the second stimulation, activated PBMCs together with dead CFSE labelled SKM-1 tumors cells were washed and re-stimulated by HLA-A2 WT-1-TCB on fresh CTV labelled SKM-1 tumor cells in the presence of 100 nM dasatinib (OFF). The use of CFSE and CTV labelled SKM-1 tumors allowed to differentiate tumor cells used for first and second stimulation by flow cytometry (FIG. 8). […] Consistently, T cells were activated and functional before the addition of dasatinib in the system. […]"}, "MKN45 NLR target cells": {"tested_on": "MKN45 NLR target cells", "assay": "Reversibility killing assay with two and three stimulations (OFF/ON, ON/OFF/ON), MKN45 NLR + CEA-TCB, Incucyte", "type": "cell-based, human", "description": "FIG. 16. In vitro killing assay set-up and timelines. PBMCs were stimulated on MKN45 NLR (E:T=10:1) target cells with 1 nM CEA-TCB for 96 hours. Activated PBMCs were washed and restimulated on new MKN45 NLR target cells (E:T=10:1) with 1 nM CEA-TCB in the presence of 25 nM dasatinib for 72 hours. Activated PBMCs were washed to remove dasatinib and restimulated on new MKN45 NLR target cells (E:T=10:1) with 1 nM CEA-TCB (“ON/OFF/ON”, see upper row of table), or vice versa (“OFF/ON/OFF”, see lower row of table). Killing was followed by Incucyte®.\nFIG. 17. Real time killing of MKN45 NLR target cells by CEA-TCB in the presence of 25 nM dasatinib (0-72 h) upon first stimulation and in the absence of 25 nM dasatinib (96-170 h) upon restimulation, in the assay of FIG. 16 (“OFF/ON”).\nFIG. 19. Real time killing of MKN45 NLR target cells by CEA-TCB in the assay of FIG. 16 (“ON/OFF/ON”).\nFIG. 21. CEA-TCB mediated target cell killing. (A) PBMCs were stimulated on MKN45 NLR (E:T=10:1) target cells with 1 nM CEA-TCB for 96 hours in the presence and absence of dasatinib. (B) Activated PBMCs were washed to remove dasatinib and restimulated on new MKN45 NLR target cells (E:T=10:1) with 1 nM CEA-TCB. Killing was followed by Incucyte®.\nWe then verified if dasatinib's effect is reversible upon its removal. Therefore we set-up a killing assay with two and three stimulations in the presence and absence of dasatinib and followed the killing kinetics using an Incucyte® system (FIG. 16). After each stimulation, effector cells were washed and re-stimulated on fresh MKN45 NLR target cells with 1 nM CEA TCB in the presence and absence of dasatinib allowing to mimic OFF/ON switch and ON/OFF/ON switch.\nLastly, we evaluated if the effect of dasatinib was reversible on activated T cells. Consequently, we supplemented the media with 25 nM dasatinib upon the second stimulation with 1 nM CEA-TCB to prevent killing from activated T cells and then removed the dasatinib upon third stimulation with 1 nM CEA-TCB to verify if killing would be restored. […] We concluded that the effect of dasatinib in the prevention of T cell activation and cytotoxicity is reversible.\nFor T-cell engaging antibodies, cytokine release peaks are higher upon the first treatment than after subsequent treatments. We were curious to see if low doses of dasatinib could prevent cytokine release while minimally affecting TCB-efficacy upon first stimulation. In killing assays as described in FIG. 16, the cytokine levels upon first treatment with 1 nM CEA-TCB in the presence of 6.25 nM and 12.5 nM dasatinib and upon second treatment with 1 nM CEA-TCB in the absence of dasatinib were measured in the supernatants. […] Its removal upon second stimulation may also balance the cytokine release and restore TCB-induced cytotoxicity due to the reversibility properties of dasatinib."}},
  "data": [
    {"smiles": "Cc1nc(Nc2ncc(C(=O)Nc3c(C)cccc3Cl)s2)cc(N2CCN(CCO)CC2)n1", "note": "[dasatinib, N-(2-chloro-6-methylphenyl)-2-[[6-[4-(2-hydroxyethyl)-1-piperazinyl]-2-methyl-4-pyrimidinyl]amino]-5-thiazole carboxamide monohydrate]", "values": [
      {"measurement": "IFN-γ, IL-2 and TNF-α release upon re-stimulation", "setting": "[1]", "value": "fully inhibited"},
      {"measurement": "killing induced by 1 nM CEA-TCB during first stimulation", "setting": "MKN45 NLR target cells; 6.25 nM and 12.5 nM dasatinib", "value": "only partially inhibited the killing"},
      {"measurement": "killing of MKN45 NLR target cells (OFF/ON)", "setting": "MKN45 NLR target cells; 25 nM dasatinib during first stimulation, removed for second, 1 nM CEA TCB", "value": "killing inhibition which was then reversed upon dasatinib removal"},
      {"measurement": "killing of MKN45 cells (ON/OFF/ON)", "setting": "MKN45 NLR target cells; 25 nM dasatinib upon second stimulation, removed upon third, 1 nM CEA-TCB", "value": "inhibited with the addition of 25 nM upon second stimulation and restored upon third stimulation"},
      {"measurement": "killing upon removal of dasatinib during second stimulation", "setting": "MKN45 NLR target cells; after 6.25 nM and 12.5 nM dasatinib in first stimulation", "value": "killing was restored"}
    ]}
  ]
}
